Like-named read-outs stand apart in the source and are kept apart here.
Columns and labels:
[1] = tested on: A/California/04/2009 (H1N1) Ca/04; assay: microbe, parasite or virus in culture; type: cell-based; details: Influenza A virus
[2] = tested on: Ca/04 OsR (A/California/04/2009 (H1N1)-H275Y); set-up: species or system mice; details: mouse, in vivo
[3] = tested on: A/California/07/2009 (H1N1); assay: microbe, parasite or virus in culture; type: cell-based, Influenza A virus
[4] = H1N1, read-out: EC50 (μM), A/California/04/2009 (H1N1) Ca/04

Compound	EC50 [1, 4] [µM]	EC50 ([1]; H1N1, read-out: EC50 (nM), A/California/04/2009 (H1N1) Ca/04) [µM]	Body weight loss [2] [%]	Survival [2] [%]	EC50 increase at passage 6 [3] [fold]	EC50 ([3]; Influenza A virus, H1N1, read-out: EC50 (μM), serial passage) [µM]	Clinical signs ([2]; ip)
NC12CC3CC(CC(C3)C1)C2 [Amantadine]	> 20						
CCC(CC)O[C@@H]1C=C(C(=O)O)C[C@H](N)[C@H]1NC(C)=O [Oseltamivir carboxylate]		0.0014 ± 0.00032					
CCOC(=O)C1=C[C@@H](OC(CC)CC)[C@H](NC(C)=O)[C@@H](N)C1 [Oseltamivir, Oseltamivir phosphate, reference compound]			~20	16			
[2H]C(NC12CC3CC(CC(O)(C3)C1)C2)c1ccc(I)s1 (stereo not shown) [UAWJ280, 3-{[(5-iodothiophen-2-yl)(D)methyl]amino}adamantan-1-ol]	0.27 ± 0.04		~15	65	7	0.27	mild clinical signs
